pIC50: −log10 of the molar value.
Target: TLR4 (toll-like receptor 4) (Homo sapiens, UniProt O00206)
Experiment: TLR4 ELISA on lysates of human PBMCs treated with AVR-25 for […] h, dose response
Format: cell-based

Sequence of TLR4 (toll-like receptor 4) (O00206 24-839): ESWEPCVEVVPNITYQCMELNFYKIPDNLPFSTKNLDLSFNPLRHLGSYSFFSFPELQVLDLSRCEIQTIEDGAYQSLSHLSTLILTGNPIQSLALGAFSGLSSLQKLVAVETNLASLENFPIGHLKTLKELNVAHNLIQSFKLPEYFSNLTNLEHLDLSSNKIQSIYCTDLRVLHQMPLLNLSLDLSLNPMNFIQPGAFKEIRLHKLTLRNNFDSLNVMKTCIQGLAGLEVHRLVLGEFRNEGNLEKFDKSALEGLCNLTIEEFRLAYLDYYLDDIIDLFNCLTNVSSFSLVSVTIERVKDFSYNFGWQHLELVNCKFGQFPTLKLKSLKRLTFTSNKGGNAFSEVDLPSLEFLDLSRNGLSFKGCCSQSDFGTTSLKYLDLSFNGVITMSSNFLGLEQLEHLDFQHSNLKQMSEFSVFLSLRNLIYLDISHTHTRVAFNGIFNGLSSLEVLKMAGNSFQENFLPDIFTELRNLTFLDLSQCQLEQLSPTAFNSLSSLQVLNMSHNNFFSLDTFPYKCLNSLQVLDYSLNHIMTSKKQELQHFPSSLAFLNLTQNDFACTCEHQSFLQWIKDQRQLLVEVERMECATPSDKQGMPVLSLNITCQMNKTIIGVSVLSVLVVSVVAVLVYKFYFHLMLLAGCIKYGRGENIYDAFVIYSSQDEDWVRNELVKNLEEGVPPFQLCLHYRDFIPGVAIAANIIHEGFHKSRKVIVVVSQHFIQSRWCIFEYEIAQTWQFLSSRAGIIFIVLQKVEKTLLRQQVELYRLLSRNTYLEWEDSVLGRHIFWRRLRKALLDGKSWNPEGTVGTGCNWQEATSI

- pIC50: 6.82
SMILES: CC(=O)N[C@H]1[C@H](OC2CCCCC2)O[C@H](CO)[C@@H](O[C@@H]2O[C@H](CO)[C@@H](O)[C@H](O)[C@H]2NC(C)=O)[C@@H]1O [AVR-25, N-((2R,3R,4R,5S,6R)-5-(((2S,3R,4R,5S,6R)-3-acetamido-4,5-dihydroxy-6-(hydroxymethyl)tetrahydro-2H-pyran-2-yl)oxy)-2-(cyclohexyloxy)-4-hydroxy-6-(hydroxymethyl)tetrahydro-2H-pyran-3-yl)acetamide]

Source: publication PMC6393422, “Novel Chitohexaose Analog Protects Young and Aged mice from CLP Induced Polymicrobial Sepsis” (Scientific Reports, 2019)
